In US5070210A, “Novel ketenimines as intermediates for insecticides” (ICI Americas Inc., priority 1990, dated 1991):

Tests used:
Type in all cases: in vivo
[1] = tested on: Housefly [Musca domestica]; experiment: Housefly insecticidal test; details: μg per 25 female flies; mortality after 48 hours
Procedure, shortened: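 Acetone solutions (with 0.01% peanut oil) dried onto dish bottoms, then 25 female flies, 1-2 days old, caged over the residue with sugar water. Mortality scored at 48 hours; LC50 from dosage-mortality curves, in μg per 25 female flies, top level 100 μg.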

[2] = tested on: Tobacco Budworm [Heliothis virescens (Fabricius)] larvae; experiment: Tobacco budworm contact test; details: second-instar larvae, percent in solution, 5 days
Procedure, shortened: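 Cotton cotyledons dipped 2–3 s in compound in 50-50 acetone-water, dried, then infested with 5 second-instar larvae and held 5 days at high humidity. Mortality scored; LC50 from dosage-mortality curves, expressed as percent compound in solution, concentrations from 0.1% downward.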

[3] = tested on: Tobacco Budworm [Heliothis virescens (Fabricius)] eggs; experiment: Tobacco budworm egg test; details: 2-day old eggs, percent in solution
Procedure, shortened: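 Paper-towel patches of 2-day-old eggs dipped in acetone solutions of compound (0.1% downward), held on larval rearing medium at 78° F. Mortality scored once all control eggs had hatched and larvae were feeding; LC50 from dosage-mortality curves, expressed as percent compound in solution.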

[4] = tested on: Beet Armyworm (Spodoptera exigua); experiment: Beet armyworm insecticidal test; details: second-instar larvae, percent in solution; five days
Procedure, shortened: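 Sugar beet leaves dipped 2–3 s in compound diluted in 50:50 acetone-water, dried, then infested with five second-instar larvae in humid petri dishes. Mortality scored at 5 days; concentrations from 0.1% downward. LC50 from dosage-mortality curves, expressed as percent compound in solution.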

[5] = tested on: Cabbage Looper [Trichoplusia ni (Hubner)]; experiment: Cabbage looper insecticidal test; details: second-instar larvae, percent in solution; 3-5 days
Procedure, shortened: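 Squash cotyledons dipped 2-3 s in compound in 50-50 acetone-water, dried, then infested with 5 second-instar larvae and held at high humidity. Mortality scored after 3-5 days at concentrations from 0.1% downward. LC50 from dosage-mortality curves, expressed as percent compound in solution.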

[6] = tested on: Aster Leafhopper [Macrosteles fascifrens (Stal)]; experiment: Aster leafhopper insecticidal test; details: adults/nymphs, percent in solution; 48 hours
Procedure, shortened: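 Three ~10 cm oat seedlings per cup were dipped 2-3 seconds in 50-50 acetone-water compound solutions, dried, and caged with ten adult/nymph leafhoppers. Mortality was counted after 48 hours at concentrations from 0.05% downward. LC50, as percent compound in solution, came from dosage-mortality curves.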

[7] = tested on: Maize weevil [Sitophilus Zeamais (Motschulsky)]; experiment: Maize weevil insecticidal test; details: adult weevils, percent in solution; 48 hours
Procedure, shortened: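 LC50, in percent of compound in solution, was derived from dosage-mortality curves after 48 h at about 25 °C. Ten adult weevils per container fed on four corn seeds briefly immersed in acetone:water (50:50) solutions of up to 0.01% and dried.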

[8] = tested on: Rice water weevil [Lissorhoptrus oryzophilus (Kuschel)]; experiment: Rice water weevil insecticidal test; details: topical, μg per weevil; 48 hours
Procedure: The compounds in Tables 1 and 2 above were tested for insecticidal activity using the following testing procedures. LC50 values, based on the results of these tests and calculated according to dosage-mortality curves, are expressed in Table 3.
Rice water weevil [Lissorhoptrus oryzophilus (Kuschel)]:
Test compounds were diluted in acetone. Droplets (1 μl) of test solutions were applied to the ventral abdomens of ten female adult weevils. The treated weevils were placed in containers with wet cotton balls and rice foliage. The containers were covered and kept at a temperature of about 25° C. Mortality was recorded after 48 hours. Test concentrations ranged from […] or 2.5 μg per weevil down to that at which 50% mortality occurred. The LC50 values are expressed below in Table 3 under the heading "RWW" in terms of μg of test compound per weevil.

SMILES	LC50, HF [1] [µg]	LC50, TBW, C (TBW-C) [2] [%]	LC50, TBW, E (TBW-E) [3] [%]	LC50, BAW [4] [%]	LC50, CL [5] [%]	LC50, LH [6] [%]	LC50, MW [7] [%]	LC50, RWW [8] [µg]
CC(C)C(=Nc1ccc(F)c(Cl)c1)OCc1cccc(Oc2ccccc2)c1 [Compound 81]	4	0.0009	0.007	0.003	0.0006	0.0003	0.005	> 0.5
CC(C)C(=Nc1ccc(F)c(Cl)c1)OCc1cccc(Oc2ccc(F)cc2)c1 [Compound 89]	5	0.0005	0.04	0.009	0.00003	0.001	0.005	> 2.5
CC(C)C(=Nc1ccc2c(c1)OCO2)OCc1cccc(Oc2ccccc2)c1 [Compound 180]	2	0.003	0.03	0.005	0.0004	0.0015	0.008	> 2.5
CC(C)C(=Nc1ccc(F)c(Cl)c1)OCc1ccc(F)c(Oc2ccc(F)cc2)c1 [Compound 216]	2	0.00018	0.005	0.0007	0.000007	0.00025	0.0017	0.067
CC(C)C(=Nc1ccc(F)c(Cl)c1)OCc1cccc(Oc2ccc(Cl)cc2)c1 [Compound 239]	14	0.0005	0.025	0.005	0.00015	0.002	0.006	> 2.5
CC(C)C(=Nc1ccc(F)c(Cl)c1)OCc1ccc(F)c(Oc2ccc(Cl)cc2)c1 [Compound 267]	8.4	0.0003	0.015	0.0012	0.00008	0.002	0.0027	0.11
CC(C)C(=Nc1ccc(Cl)cc1)OCc1cccc(Oc2ccc(Cl)cc2)c1 [Compound 269]	25	0.001	0.04	0.0024	0.0003	0.003	> 0.01	> 2.5
CC(C)C(=Nc1ccc(F)c(Br)c1)OCc1ccc(F)c(Oc2ccc(F)cc2)c1 [Compound 273]	7	0.00025	0.015	0.0017	0.000018	0.0003	0.004	> 2.5
CC(C)C(=Nc1ccc(F)c(C(F)(F)F)c1)OCc1ccc(F)c(Oc2ccc(F)cc2)c1 [Compound 277]	4	0.0005	0.013	0.005	0.00001	0.0003	> 0.01	0.065
CC(C)C(=Nc1ccc(F)c(F)c1)OCc1ccc(F)c(Oc2ccc(F)cc2)c1 [Compound 278]	3	0.00026	0.008	0.0012	0.00002	0.0003	0.0063	0.085
CC(C)C(=Nc1ccc(OC(F)(F)F)cc1)OCc1ccc(F)c(Oc2ccc(F)cc2)c1 [Compound 286]	34	0.00017	0.005	0.0004	0.000024	0.0006	0.0039	0.09
